Key:
barnyardgrass [1] = experiment: Test C preemergence; type: in vivo, Echinochloa crusgalli; settings: 0 to 100 scale (0 no effect, 100 complete control)
In short: (§1)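 Soil-applied (pre) and foliar (post, 1–2 leaf, 2–10 cm) sprays; surfactant-containing non-phytotoxic solvent vehicle; loam/sand substrate. Readout: visual % control at 10 d, greenhouse, versus untreated.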

blackgrass [2] = experiment: Test C preemergence; type: in vivo, Alopecurus myosuroides; settings: 0 to 100 scale (0 no effect, 100 complete control)
In short: as §1

corn [3] = experiment: Test C preemergence; type: in vivo, Zea mays; settings: preemergence, 0 to 100 scale (0 no effect, 100 complete control)
In short: as §1

green foxtail [4] = experiment: Test C preemergence; type: in vivo, Setaria viridis; settings: preemergence, 0 to 100 scale (0 no effect, 100 complete control)
In short: as §1

kochia [5] = experiment: Test C preemergence; type: in vivo, Bassia scoparia; settings: preemergence, 0 to 100 scale (0 no effect, 100 complete control)
In short: as §1

oat, wild [6] = experiment: Test C preemergence; type: in vivo, Avena fatua; settings: preemergence, 0 to 100 scale (0 no effect, 100 complete control)
In short: as §1

pigweed, palmer [7] = experiment: Test C preemergence; type: in vivo, Amaranthus palmeri; settings: preemergence, 0 to 100 scale (0 no effect, 100 complete control)
In short: as §1

ragweed [8] = experiment: Test C preemergence; type: in vivo, Ambrosia artemisiifolia; settings: preemergence, 0 to 100 scale (0 no effect, 100 complete control)
In short: as §1

ryegrass, Italian [9] = experiment: Test C preemergence; type: in vivo, Lolium multiflorum; settings: preemergence, 0 to 100 scale (0 no effect, 100 complete control)
In short: as §1

soybean [10] = experiment: Test C preemergence; type: in vivo, Glycine max; settings: preemergence, 0 to 100 scale (0 no effect, 100 complete control)
In short: as §1

wheat [11] = experiment: Test C preemergence; type: in vivo, Triticum aestivum; settings: preemergence, 0 to 100 scale (0 no effect, 100 complete control)
In short: as §1

barnyardgrass [12] = experiment: Test C postemergence; type: in vivo, Echinochloa crusgalli; settings: 10 days
In short: as §1

blackgrass [13] = experiment: Test C postemergence; type: in vivo, Alopecurus myosuroides; settings: 10 days
In short: as §1

corn [14] = experiment: Test C postemergence; type: in vivo, Zea mays; settings: 10 days
In short: as §1

green foxtail [15] = experiment: Test C postemergence; type: in vivo, Setaria viridis; settings: 10 days
In short: as §1

kochia [16] = experiment: Test C postemergence; type: in vivo, Bassia scoparia; settings: 125 g ai/ha, postemergence, 10 days; 0 to 100 scale, 0 no effect, 100 complete control
In short: as §1

oat, wild [17] = experiment: Test C postemergence; type: in vivo, Avena fatua; settings: 125 g ai/ha, postemergence, 10 days; 0 to 100 scale, 0 no effect, 100 complete control
In short: as §1

pigweed, palmer [18] = experiment: Test C postemergence; type: in vivo, Amaranthus palmeri; settings: 125 g ai/ha, postemergence, 10 days; 0 to 100 scale, 0 no effect, 100 complete control
In short: as §1

ragweed [19] = experiment: Test C postemergence; type: in vivo, Ambrosia artemisiifolia; settings: 125 g ai/ha, postemergence, 10 days; 0 to 100 scale, 0 no effect, 100 complete control
In short: as §1

ryegrass, Italian [20] = experiment: Test C postemergence; type: in vivo, Lolium multiflorum; settings: 125 g ai/ha, postemergence, 10 days; 0 to 100 scale, 0 no effect, 100 complete control
In short: as §1

soybean [21] = experiment: Test C postemergence; type: in vivo, Glycine max; settings: 125 g ai/ha, postemergence, 10 days; 0 to 100 scale, 0 no effect, 100 complete control
In short: as §1

wheat [22] = experiment: Test C postemergence; type: in vivo, Triticum aestivum; settings: 125 g ai/ha, postemergence, 10 days; 0 to 100 scale, 0 no effect, 100 complete control
In short: as §1

galium = experiment: Test C postemergence; type: in vivo, Galium aparine; settings: 10 days
In short: as §1

horseweed = experiment: Test C postemergence; type: in vivo, Erigeron canadensis; settings: 10 days
In short: as §1

barnyardgrass [23] = experiment: Test D flooded paddy test; type: in vivo, Echinochloa crus-galli; settings: 250 g ai/ha, applied to paddy water, visual rating after 13 to 14 days, scale 0 to 100 (0 no effect, 100 complete control)
In short: (§2)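 Plants grown to the 2-leaf stage; pots flooded to 3 cm above soil at treatment and held at that depth throughout. Test compounds applied directly to the paddy water. After 13 to 14 days in a greenhouse, response was rated visually versus controls on a 0 (no effect) to 100 (complete control) scale.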

ducksalad = experiment: Test D flooded paddy test; type: in vivo, Heteranthera limosa; settings: 250 g ai/ha, applied to paddy water, visual rating after 13 to 14 days, scale 0 to 100 (0 no effect, 100 complete control)
In short: as §2

rice = experiment: Test D flooded paddy test; type: in vivo, Oryza sativa; settings: 250 g ai/ha, applied to paddy water, visual rating after 13 to 14 days, scale 0 to 100 (0 no effect, 100 complete control)
In short: as §2

sedge, umbrella = experiment: Test D flooded paddy test; type: in vivo, Cyperus difformis; settings: 250 g ai/ha, applied to paddy water, visual rating after 13 to 14 days, scale 0 to 100 (0 no effect, 100 complete control)
In short: as §2

[24] = Preemergence, 500 g ai/ha, visual rating after 10 days
[25] = Test C, preemergence, 125 g ai/ha
[26] = 125 g ai/ha, postemergence, 0 to 100 scale, 0 no effect, 100 complete control
[27] = Postemergence, 500 g ai/ha, visual 0 to 100 scale (0 no effect, 100 complete control)

COC[C@H]1CN(C(=O)c2cc(-n3cnc(C4CCC4)n3)ccc2C)c2cccc(Cl)c2O1 [Compound 267]
40: Oat, Wild plant response rating (oat, wild [6]; Test C, 125 g ai/ha) | Ragweed plant response rating (ragweed [8]; Test C, 125 g ai/ha)
80: Plant response rating, Barnyardgrass (barnyardgrass [1]; [24])
98: Plant response rating, Sedge, Umbrella (Flood) (sedge, umbrella)
10: Corn plant response rating (corn [3]; 500 g ai/ha)
20: Blackgrass plant response rating (blackgrass [2]; [25]) | Wheat plant response rating (wheat [11]; Test C, 125 g ai/ha) | Plant response rating, Wheat (wheat [22])
60: Barnyardgrass plant response rating (barnyardgrass [1]; [25]) | Plant response rating, Blackgrass (blackgrass [2]; [24]) | Oat, Wild plant response rating (oat, wild [6]; 500 g ai/ha) | Ragweed plant response rating (ragweed [8]; 500 g ai/ha) | Plant response rating, Barnyardgrass (barnyardgrass [12]; [26]) | Plant response rating, Ryegrass, Italian (ryegrass, Italian [20]) | Plant response rating, Horseweed (horseweed; [26])
35: Plant response rating, Barnyardgrass (Flood) (barnyardgrass [23])
0: Corn plant response rating (corn [3]; Test C, 125 g ai/ha) | Plant response rating, Oat, Wild (oat, wild [17])
70: Ryegrass, Italian plant response rating (ryegrass, Italian [9]; Test C, 125 g ai/ha) | Plant response rating, Foxtail, Green (green foxtail [15]; [26]) | Plant response rating, Ragweed (ragweed [19])
30: Wheat plant response rating (wheat [11]; 500 g ai/ha) | Plant response rating, Blackgrass (blackgrass [13]; [26])
100: Foxtail, Green plant response rating (green foxtail [4]; 500 g ai/ha) | Foxtail, Green plant response rating (green foxtail [4]; Test C, 125 g ai/ha) | Pigweed, Palmer plant response rating (pigweed, palmer [7]; 500 g ai/ha) | Plant response rating, Soybean (soybean [21]) | Plant response rating, Galium (galium; [26]) | Plant response rating, Galium (galium; [27])
50: Plant response rating, Blackgrass (blackgrass [13]; [27]) | Plant response rating, Corn (corn [14]; [26]) | Plant response rating, Horseweed (horseweed; [27]) | Plant response rating, Ducksalad (Flood) (ducksalad)
90: Kochia plant response rating (kochia [5]; 500 g ai/ha) | Kochia plant response rating (kochia [5]; Test C, 125 g ai/ha) | Pigweed, Palmer plant response rating (pigweed, palmer [7]; Test C, 125 g ai/ha) | Ryegrass, Italian plant response rating (ryegrass, Italian [9]; 500 g ai/ha) | Soybean plant response rating (soybean [10]; 500 g ai/ha) | Soybean plant response rating (soybean [10]; Test C, 125 g ai/ha) | Plant response rating, Barnyardgrass (barnyardgrass [12]; [27]) | Plant response rating, Corn (corn [14]; [27]) | Plant response rating, Foxtail, Green (green foxtail [15]; [27]) | Plant response rating, Kochia (kochia [16]) | Plant response rating, Pigweed, Palmer (pigweed, palmer [18])
25: Plant response rating, Rice (Flood) (rice)
